# Starred links: 1 amine or outer side, 2 acyl side, 3 side chain; linkers in the order of their positions; H or OH if unused. Positions of bridges follow the written chain, without caps; N, C: chain ends. Non-standard residues stand in square brackets, D forms with d. Residues, ends and D or L forms follow the SMILES beside them. *: point of attachment. NMeAbu(3,3-F2-piperidino) = CN[C@@H](CCN1CCCC(F)(F)C1)C(=O)O; hPhe(3-Cl-4-CF3) = N[C@@H](CCc1ccc(C(F)(F)F)c(Cl)c1)C(=O)O; hPhe(3-F,4-CF3) = N[C@@H](CCc1ccc(C(F)(F)F)c(F)c1)C(=O)O; hPhe(3,4-Cl2) = N[C@@H](CCc1ccc(Cl)c(Cl)c1)C(=O)O; NMePhe(4-CN) = CN[C@@H](Cc1ccc(C#N)cc1)C(=O)O; NMeAbu(4,4,4-F3) = CN[C@@H](CC(F)(F)F)C(=O)O; NMePhe(4-Cl) = CN[C@@H](Cc1ccc(Cl)cc1)C(=O)O; NMePhe(4-Me) = CN[C@@H](Cc1ccc(C)cc1)C(=O)O; NMedβ3hAla = C[C@H](CC(=O)[*:2])N(C)[*:1]; NMeGly(cPent) = CN[C@H](C(=O)O)C1CCCC1; NMeGly(cBu) = CN[C@H](C(=O)O)C1CCC1; NMeCha = CN[C@@H](CC1CCCCC1)C(=O)O; NMeChg = CN[C@H](C(=O)O)C1CCCCC1; NMeF = CN[C@@H](Cc1ccccc1)C(=O)O; NMeI = CC[C@H](C)[C@H](NC)C(=O)O; NMeT = CN[C@H](C(=O)O)[C@@H](C)O; NMeD = CN[C@@H](CC(=O)O)C(=O)O; NMeL = CN[C@@H](CC(C)C)C(=O)O; NPrAla = CCCN[C@@H](C)C(=O)O; NMeV = CN[C@H](C(=O)O)C(C)C; d(β3hA) = C[C@@H](N)CC(=O)O; NMeS = CN[C@@H](CO)C(=O)O; Morpholide = C1CN(*)CCO1; NMeA = CN[C@@H](C)C(=O)O; Piperidide = C1CCN(*)CC1; Pyrrolidide = C1CCN(*)C1; Ac5c = NC1(C(=O)O)CCCC1; Aze = O=C(O)[C@@H]1CCN1; Ac4c = NC1(C(=O)O)CCC1; Cyclobutyl = C1CC(*)C1; Sar = CNCC(=O)O; Propyl = CCC*
# What was measured:
# [1] = test system: Human pancreatic cancer cell line AsPC-1; experiment: Measurement of AsPC-1 cell growth inhibition (AsPC-1 CGI); type: cell-based; conditions: 96 h
# How it was run: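 AsPC-1 cells in 15% FBS RPMI-1640 were exposed to test compound for 96 hours at 37° C, with CellTiter-Glo as endpoint.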
# [2] = target: T1, Kras and SOS1 (biotin-tagged human Kras loaded with GDP, His-tagged human SOS1) (Homo sapiens, UniProt P01116, G12D); experiment: Protein-protein interaction inhibition between Kras and SOS1 (KrasGl2D-SOS PPI) using AlphaScreen; type: binding; conditions: AlphaScreen; biotin-tagged human Kras loaded with GDP, His-tagged human SOS1; read-out: KRAS G12D-SOS PPI IC50
# T1 construct: made in house; host or cells: E. coli (stated for Kras only)
# How it was run: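 Donor beads (nickel) hold His-SOS1; acceptor beads (streptavidin) hold biotin-Kras bound to GDP. Signal measured at 520-620 nm following 680 nm excitation.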
# T1 sequence (P01116 1-188 isoform P01116-2 G12D): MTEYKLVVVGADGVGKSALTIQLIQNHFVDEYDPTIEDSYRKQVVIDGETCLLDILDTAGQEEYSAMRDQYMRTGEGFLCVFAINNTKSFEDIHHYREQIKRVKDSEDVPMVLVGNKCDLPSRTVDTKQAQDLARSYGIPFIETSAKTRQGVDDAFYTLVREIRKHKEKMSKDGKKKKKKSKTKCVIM
SMILES,IC50 [1],IC50 [2]
"CC[C@H](C)[C@@H]1NC(=O)[C@H](CC(C)C)N(C)C(=O)C[C@@H](C(=O)N2CCCC2)N(C)C(=O)[C@H](C(C)C)N(C)C(=O)C2(CCCC2)NC(=O)[C@@H]2CCCN2C(=O)[C@H](CCc2ccc(C(F)(F)F)c(F)c2)NC(=O)CN(C)C(=O)[C@H](CC2CCCCC2)N(C)C(=O)CN(C)C(=O)CN(C)C1=O [Compound 804] ([NMeL]I[Sar][Sar][NMeCha][Sar][hPhe(3-F,4-CF3)]P[Ac5c][NMeV][NMeD]-Pyrrolidide; lactam N-11)",100 to 500 nM,0.99 nM
CCCOC[C@H]1C(=O)N2CC[C@H]2C(=O)N(C)[C@@H](CC2CCCCC2)C(=O)N(C)CC(=O)N[C@@H](CCc2ccc(C(F)(F)F)c(Cl)c2)C(=O)N2CCC[C@H]2C(=O)NC2(CCCC2)C(=O)N(C)[C@@H](C(C)C)C(=O)N(C)[C@H](C(=O)N2CCCCC2)CC(=O)N(C)[C@@H](CC(C)C)C(=O)N[C@@H]([C@@H](C)CC)C(=O)N1C [Compound 809] ([NMeL]I[NMeS](Propyl)[Aze][NMeCha][Sar][hPhe(3-Cl-4-CF3)]P[Ac5c][NMeV][NMeD]-Piperidide; lactam N-11),100 to 500 nM,47 nM
"CC[C@H](C)[C@@H]1NC(=O)[C@H](CC(F)(F)F)N(C)C(=O)C[C@@H](C(=O)N2CCCC2)N(C)C(=O)[C@H](C2CCCCC2)N(C)C(=O)C2(CCCC2)NC(=O)[C@@H]2CCCN2C(=O)[C@H](CCc2ccc(C(F)(F)F)c(Cl)c2)NC(=O)CN(C)C(=O)[C@H](Cc2ccc(C)cc2)N(C)C(=O)CN(C)C(=O)CN(C)C1=O [Compound 814] ([NMeAbu(4,4,4-F3)]I[Sar][Sar][NMePhe(4-Me)][Sar][hPhe(3-Cl-4-CF3)]P[Ac5c][NMeChg][NMeD]-Pyrrolidide; lactam N-11)",20 to 50 nM,0.41 nM
CC[C@H](C)[C@@H]1NC(=O)[C@H](C2CCC2)N(C)C(=O)C[C@@H](C)NC(=O)[C@H](C(C)C)N(C)C(=O)C2(CCCC2)NC(=O)[C@@H]2CCCN2C(=O)[C@H](CCc2ccc(C(F)(F)F)c(Cl)c2)NC(=O)CN(C)C(=O)[C@H](CC2CCCCC2)N(C)C(=O)CN(C)C(=O)CN(C)C1=O [Compound 815] (cyclo([Ac5c][NMeV][d(β3hA)][NMeGly(cBu)]I[Sar][Sar][NMeCha][Sar][hPhe(3-Cl-4-CF3)]P)),100 to 500 nM,26 nM
"CC[C@H](C)[C@@H]1NC(=O)[C@H](CC(C)C)N(C)C(=O)C[C@@H](C(=O)N(C)C)N(C)C(=O)[C@H]([C@@H](C)CC)N(C)C(=O)C2(CCCC2)NC(=O)[C@H](CCN2CCCC(F)(F)C2)N(C)C(=O)[C@H](CCc2ccc(C(F)(F)F)c(Cl)c2)NC(=O)CN(C)C(=O)[C@H](Cc2ccc(C)cc2)N(C)C(=O)[C@@H]2CCN2C(=O)[C@H](C)N(C)C1=O [Compound 818] ([NMeL]I[NMeA][Aze][NMePhe(4-Me)][Sar][hPhe(3-Cl-4-CF3)][NMeAbu(3,3-F2-piperidino)][Ac5c][NMeI][NMeD]-NMe2; lactam N-11)",20 to 50 nM,1.2 nM
CC[C@H](C)[C@@H]1NC(=O)[C@H]([C@@H](C)OC)N(C)C(=O)C[C@@H](C(=O)N2CCCCC2)N(C)C(=O)[C@H](C2CCCCC2)N(C)C(=O)C2(CCCC2)NC(=O)[C@@H]2CCCN2C(=O)[C@H](CCc2ccc(C(F)(F)F)c(Cl)c2)NC(=O)CN(C)C(=O)[C@H](CC2CCCCC2)N(C)C(=O)CN(C)C(=O)CN(C)C1=O [Compound 820] ([NMeT](Me)I[Sar][Sar][NMeCha][Sar][hPhe(3-Cl-4-CF3)]P[Ac5c][NMeChg][NMeD]-Piperidide; lactam N-11),50 to 100 nM,0.73 nM
CCCN1C(=O)C[C@@H](C)N(C)C(=O)[C@H](C(C)C)N(C)C(=O)C2(CCCC2)NC(=O)[C@@H]2CCCN2C(=O)[C@H](CCc2ccc(C(F)(F)F)c(Cl)c2)NC(=O)CN(C)C(=O)[C@H](CC2CCCCC2)N(C)C(=O)CN(C)C(=O)CN(C)C(=O)[C@H]([C@@H](C)CC)NC(=O)[C@@H]1C [Compound 824] (cyclo([Ac5c][NMeV][NMedβ3hAla][NPrAla]I[Sar][Sar][NMeCha][Sar][hPhe(3-Cl-4-CF3)]P)),100 to 500 nM,5.6 nM
"CC[C@H](C)[C@@H]1NC(=O)[C@H](C)N(C)C(=O)C[C@@H](C(=O)N2CCCCC2)N(C)C(=O)[C@H](C2CCCCC2)N(C)C(=O)C2(CCCC2)NC(=O)[C@@H]2CCCN2C(=O)[C@H](CCc2ccc(Cl)c(Cl)c2)NC(=O)CN(C)C(=O)[C@H](CC2CCCCC2)N(C)C(=O)CN(C)C(=O)CN(C)C1=O [Compound 825] ([NMeA]I[Sar][Sar][NMeCha][Sar][hPhe(3,4-Cl2)]P[Ac5c][NMeChg][NMeD]-Piperidide; lactam N-11)",50 to 100 nM,0.35 nM
CC[C@H](C)[C@@H]1NC(=O)[C@H](CC(C)C)N(C)C(=O)C[C@@H](C)N(C)C(=O)[C@H](C(C)C)N(C)C(=O)C2(CCC2)NC(=O)[C@@H]2CCCN2C(=O)[C@H](CCc2ccc(C(F)(F)F)c(Cl)c2)NC(=O)CN(C)C(=O)[C@H](CC2CCCCC2)N(C)C(=O)CN(C)C(=O)CN(C)C1=O [Compound 837] (cyclo([Ac4c][NMeV][NMedβ3hAla][NMeL]I[Sar][Sar][NMeCha][Sar][hPhe(3-Cl-4-CF3)]P)),50 to 100 nM,6 nM
CC[C@H](C)[C@@H]1NC(=O)[C@H](CC(C)C)N(C)C(=O)C[C@@H](C(=O)N(C)C)N(C)C(=O)[C@H]([C@@H](C)CC)N(C)C(=O)C2(CCCC2)NC(=O)[C@H](Cc2ccc(Cl)cc2)N(C)C(=O)[C@H](CCc2ccc(C(F)(F)F)c(Cl)c2)NC(=O)CN(C)C(=O)[C@H](Cc2ccc(C)cc2)N(C)C(=O)[C@@H]2CCN2C(=O)[C@H](C)N(C)C1=O [Compound 838] ([NMeL]I[NMeA][Aze][NMePhe(4-Me)][Sar][hPhe(3-Cl-4-CF3)][NMePhe(4-Cl)][Ac5c][NMeI][NMeD]-NMe2; lactam N-11),100 to 500 nM,10 nM
CC[C@H](C)[C@@H]1NC(=O)[C@H](CC(C)C)N(C)C(=O)C[C@@H](C)N(C)C(=O)[C@H](C2CCC2)N(C)C(=O)C2(CCCC2)NC(=O)[C@@H]2CCCN2C(=O)[C@H](CCc2ccc(C(F)(F)F)c(Cl)c2)NC(=O)CN(C)C(=O)[C@H](CC2CCCCC2)N(C)C(=O)CN(C)C(=O)CN(C)C1=O [Compound 845] (cyclo([Ac5c][NMeGly(cBu)][NMedβ3hAla][NMeL]I[Sar][Sar][NMeCha][Sar][hPhe(3-Cl-4-CF3)]P)),50 to 100 nM,8.2 nM
CC[C@H](C)[C@@H]1NC(=O)[C@H](C2CCCCC2)N(C)C(=O)C[C@@H](C(=O)N2CCCCC2)N(C)C(=O)[C@H](C2CCCCC2)N(C)C(=O)C2(CCCC2)NC(=O)[C@@H]2CCCN2C(=O)[C@H](CCc2ccc(C(F)(F)F)c(Cl)c2)NC(=O)CN(C)C(=O)[C@H](CC2CCCCC2)N(C)C(=O)CN(C)C(=O)CN(C)C1=O [Compound 849] ([NMeChg]I[Sar][Sar][NMeCha][Sar][hPhe(3-Cl-4-CF3)]P[Ac5c][NMeChg][NMeD]-Piperidide; lactam N-11),100 to 500 nM,1.9 nM
CCCOC[C@H]1C(=O)N(C)CC(=O)N[C@@H](CCc2ccc(C(F)(F)F)c(Cl)c2)C(=O)N2CCC[C@H]2C(=O)NC2(CCCC2)C(=O)N(C)[C@@H](C2CCCCC2)C(=O)N(C)[C@H](C(=O)N2CCOCC2)CC(=O)N(C)[C@@H](C2CCC2)C(=O)N[C@@H]([C@@H](C)CC)C(=O)N(C)CC(=O)N(C)CC(=O)N1C [Compound 853] ([NMeGly(cBu)]I[Sar][Sar][NMeS](Propyl)[Sar][hPhe(3-Cl-4-CF3)]P[Ac5c][NMeChg][NMeD]-Morpholide; lactam N-11),100 to 500 nM,0.62 nM
CC[C@H](C)[C@@H]1NC(=O)[C@H](CC(C)C)N(C)C(=O)C[C@@H](C(=O)N(C)C)N(C)C(=O)[C@H](C2CCCC2)N(C)C(=O)C2(CCCC2)NC(=O)[C@H](Cc2ccccc2)N(C)C(=O)[C@H](CCc2ccc(C(F)(F)F)c(Cl)c2)NC(=O)CN(C)C(=O)[C@H](CC2CCCCC2)N(C)C(=O)[C@@H]2CCN2C(=O)[C@H](C)N(C)C1=O [Compound 854] ([NMeL]I[NMeA][Aze][NMeCha][Sar][hPhe(3-Cl-4-CF3)][NMeF][Ac5c][NMeGly(cPent)][NMeD]-NMe2; lactam N-11),100 to 500 nM,11 nM
CC[C@H](C)[C@@H]1NC(=O)[C@H](CC(C)C)N(C)C(=O)C[C@@H](C(=O)N2CCCCC2)N(C)C(=O)[C@H](C(C)C)N(C)C(=O)C2(CCCC2)NC(=O)[C@@H]2CCCN2C(=O)[C@H](CCc2ccc(C(F)(F)F)c(Cl)c2)NC(=O)CN(C)C(=O)[C@H](COC2CCC2)N(C)C(=O)[C@@H]2CCN2C(=O)[C@H](C)N(C)C1=O [Compound 880] ([NMeL]I[NMeA][Aze][NMeS](Cyclobutyl)[Sar][hPhe(3-Cl-4-CF3)]P[Ac5c][NMeV][NMeD]-Piperidide; lactam N-11),100 to 500 nM,2.9 nM
CC[C@H](C)[C@@H]1NC(=O)[C@H](CC(C)C)N(C)C(=O)C[C@@H](C)N(C)C(=O)[C@H](C(C)C)N(C)C(=O)C2(CCCC2)NC(=O)[C@@H]2CCCN2C(=O)[C@H](CCc2ccc(C(F)(F)F)c(Cl)c2)NC(=O)CN(C)C(=O)[C@H](Cc2ccc(C#N)cc2)N(C)C(=O)CN(C)C(=O)CN(C)C1=O [Compound 888] (cyclo([Ac5c][NMeV][NMedβ3hAla][NMeL]I[Sar][Sar][NMePhe(4-CN)][Sar][hPhe(3-Cl-4-CF3)]P)),100 to 500 nM,3.9 nM
CC[C@H](C)[C@@H]1NC(=O)[C@H](C2CCC2)N(C)C(=O)C[C@@H](C(=O)N2CCOCC2)N(C)C(=O)[C@H](C2CCCCC2)N(C)C(=O)C2(CCCC2)NC(=O)[C@@H]2CCCN2C(=O)[C@H](CCc2ccc(C(F)(F)F)c(Cl)c2)NC(=O)CN(C)C(=O)[C@H](CC2CCCCC2)N(C)C(=O)CN(C)C(=O)CN(C)C1=O [Compound 890] ([NMeGly(cBu)]I[Sar][Sar][NMeCha][Sar][hPhe(3-Cl-4-CF3)]P[Ac5c][NMeChg][NMeD]-Morpholide; lactam N-11),20 to 50 nM,0.47 nM

# From patent US12371454B2, “Cyclic peptide compound having Kras inhibitory action” (priority 2019, dated 2025)
